Laboratory results published in patent US9220705B2, “Method of treating colorectal cancer” (priority 2013, dated 2015).

Columns and labels:
A375 = experiment: MTT cytotoxicity assay, 72 h; type: cell-based, human; details: A375, skin
Description: (§1) Human breast (MCF-7) and colon (HCT-15, DDL1, SW480 and CaCo-2) carcinoma cell lines along with melanoma (A375) were obtained from the American Type Culture Collection (ATCC, Rockville, Md.). A431 are human cervical carcinoma cells kindly provided by Prof. F. Zunino (Molecular Pharmacology Unit, Experimental Oncology and Molecular Medicine, Istituto Nazionale dei Tumori, Milan, Italy). […] G. Marverti (Dept. of Biomedical Science, University of Modena, Italy). LoVo human colon-carcinoma cell line and its multidrug-resistant sublime (LoVo MDR) were kindly provided by Prof F. Maj one (Department of Biology of Padova University, Italy). […] Cell lines were maintained in the logarithmic phase at 37° C. in a 5% carbon dioxide atmosphere using the following culture media containing 10% fetal calf serum (Euroclone, Milan, Italy), antibiotics (50 units mL^−1 penicillin and 50 μg mL^−1 streptomycin), and 2 mM L-glutamine in: i) RPMI-1640 medium (Euroclone) for MCF-7, HCT-15, A431, DLD 1, 2008, and C13* cells; ii) F-12 HAM'S (Sigma Chemical Co.) for LoVo, LoVo MDR, and LoVo-OXP cells; iii) DMEM for A375 and SW 480 cells; and iv) MEM for CaCo-2 cells.
(§2) The growth inhibitory effect towards tumor cell lines was evaluated by means of the MTT (3-(4,5-dimethylthiazol-2-yl)-2,5-diphenyltetrazolium bromide) assay (Alley, M. C., et al., Cancer Res. 1988, 48, 589-601).
(§3) Briefly, depending upon the growth characteristics of the cell line, 3-8×10^3 cells well^−1, were seeded in 96-well microplates in growth medium (100 μL) and then incubated at 37° C. in a 5% carbon dioxide atmosphere. After 24 h, the medium was removed and replaced with a fresh one containing the compound to be studied, at the appropriate concentration, dissolved in 0.9% sodium chloride solution just before use. Triplicate cultures were established for each treatment. After 72 h, each well was treated with […] of a 5 mg mL^−1 MTT saline solution and, after 5 h of incubation, 100 μL of a sodium dodecylsulfate (SDS) solution in 0.01 M HCl were added. After an overnight incubation, the inhibition of cell growth induced by the tested complexes was determined by measuring the absorbance of each well at 570 nm using a BioRad 680 microplate reader. Mean absorbance for each drug dose was expressed as percentage of the control and plotted vs. drug concentration. Dose-response curves were fitted and IC50 values were calculated with four parameter logistic model (4PL).
(§4) Compound 1 was prepared for the first time almost twenty years ago however, until now, it had been tested (both in vitro and in vivo) only in a limited number of tumor cell lines (Hoeschele, J. D., et al., J. Med. Chem. 1994, 37, 2630-2636 and Shamsuddin, S., et al., J. Inorg. Biochem. 1996, 61, 291-301). The Pt(II) and Pt(IV) complexes containing isomeric forms of diaminocyclohexane, [PtCl2(cis-1,4-DACHA](1), [PtCl2(1R,2R-DACH)] (2), [Pt(OXA)(cis-1,4-DACH)] (3), cis,trans,cis-[Pt^IVCl2(OH)2(cis-1,4-DACH)] (4), cis,trans,cis-[Pt^IVCl2(DCA)2(cis-1,4-DACH)] (5), [Pt(CBDCA)(cis-1,4-DACH)] (6), cis,trans,cis-[Pt^IV(OXA)(OH)2(cis-1,4-DACH)] (7), and cis,trans,cis-[Pt^IV(OXA)(DCA)2(cis-1,4-DACH)] (8) were evaluated for their cytotoxic activity towards a panel of human tumor cell lines including cervical (A431), breast (MCF-7), cancers along with a melanoma (A375) and 4 different colon cancer cell lines corresponding to different stages of the disease progression (HCT-15, SW480, CaCo-2, DLD-1). The cytotoxicity was evaluated by means of the MTT test for 72 h treatment with increasing concentrations of the tested compounds.

MCF-7 = experiment: MTT cytotoxicity assay, 72 h; type: cell-based, human; details: MCF-7, breast
Description: as §1, §2, §3, §4

SW480 = experiment: MTT cytotoxicity assay, 72 h; type: cell-based, human; details: SW480, colon
Description: as §1, §2, §3, §4

[1] = system: 2008 ovarian cancer cells; experiment: MTT cytotoxicity assay, cross-resistance profile; type: cell-based, human; details: 72 h
Description: as §1, §2, §3
(§5) A LoVo cell line retaining a multidrug resistance phenotype was also considered (LoVo MDR). Cross-resistance profiles were evaluated by means of the resistance factor (RF), which is defined as the ratio between the IC50 value for the resistant cells and that arising from the sensitive cells (Table 2).

[2] = system: C13* cisplatin resistant ovarian cancer cells; experiment: MTT cytotoxicity assay, cross-resistance profile; type: cell-based, human; details: for R.F. (resistance factor): IC50 C13* / IC50 2008, cross-resistance with cisplatin
Description: as §1, §2, §3, §5

[3] = system: LoVo-OXP oxaliplatin resistant colon cancer cells; experiment: MTT cytotoxicity assay, cross-resistance profile; type: cell-based, human; details: for R.F. (resistance factor): IC50 LoVo-OXP / IC50 LoVo, cross-resistance with oxaliplatin
Description: as §1, §2, §3, §5

[4] = system: LoVo MDR multidrug resistant colon carcinoma subline; experiment: MTT cytotoxicity assay, cross-resistance profile; type: cell-based, human
Description: as §1, §2, §3, §5
In Table 2 are also reported the results obtained in a multidrug resistant (MDR) colon carcinoma subline, LoVo MDR, in which the resistance to doxorubicin, a drug belonging to the MDR spectrum, is associated with an overexpression of multi-specific drug transporters, such as the 170 kDa P-glycoprotein (P-gp) (Wersinger, C., et al., Amino Acids 2000, 19, 667-685). It is well known that acquired MDR, whereby cells become refractory to multiple drugs, poses most important challenge to the success of anticancer chemotherapy.

[5] = system: LoVo colorectal adenocarcinoma xenografts; experiment: In vivo anticancer activity, oxaliplatin-sensitive colorectal xenograft; set-up: species or system BALB/c nu/nu mice; details: LoVo xenograft; daily ip day 14 to day 30; 1 at 3 mg/kg, OXP at 2 mg/kg; tumor volume at day 30
Protocol: LoVo and LoVo-OXP tumor xenografts were established in 6-week-old BALB/c nu/nu mice by injecting 1×10^7 tumor cells subcutaneously (100 μL in serum free medium) on the left dorsal flank. After 24 h from tumor implantation, mice were randomly divided into five groups (6 animals per group, 8 controls). Chemotherapy was delayed until the tumor became palpable (day 14). From day 14, 1 was dosed daily at 3 mg/kg ip whereas OXP was dosed daily at 2 mg/kg ip. Measurements of body weights and tumor volumes were recorded every 2 days until the experimental endpoint. The long axis (L) and the short axis (S) were measured with caliper, and the tumor volume (V) was calculated using the following equation: V=S×S×L/2. At day 30, animals were sacrificed, and the inhibition of tumor growth was determined by comparing the volume of the control group and the treatment group expressed as % referred to the control animals.
All the values are the means±S.D. of not less than three measurements. Multiple comparisons were made by Tukey-Kramer test (**p<0.01; *p<0.05).

SMILES: O=C1[O][Pt-2]2([NH2+]C3CCCC[C@H]3[NH2+]2)[O]C1=O (stereo partly drawn) [oxaliplatin, [(1R,2R)-cyclohexane-1,2diamine](ethanedioato)platinum(II), reference compound]
- IC50 (A375): 2.37 ± 1.31 µM
- IC50 (MCF-7): 3.36 ± 1.69 µM
- IC50 (SW480): 4.2 ± 0.75 µM
- IC50 [1]: 1.65 ± 1.01 µM
- IC50 ([2]; C13*, 72 h, MTT): 3.33 ± 1.84 µM
- R.F. (resistance factor) [2]: 2.0
- R.F. (resistance factor) ([2]; listed as OXP): 2
- R.F. (resistance factor) [3]: 17
- R.F. (resistance factor) ([3]; listed as OXP): 17
- IC50 ([3]; LoVo-OXP, 72 h, MTT): 17.5 ± 1.79 µM
- R.F. (resistance factor) ([4]; IC50 LoVo-MDR / IC50 LoVo): 1.3
- IC50 ([4]; LoVo-MDR, 72 h, MTT): 1.36 ± 0.81 µM
- tumor growth inhibition [5]: 54%
